From patent US5466861A, “Bridged bicyclic aromatic compounds and their use in modulating gene expression of retinoid receptors” (SRI International, priority 1992, dated 1995)

Legend:
Type in all cases: cell-based
[1] = system: CRBPII-RARE, activated only by RXR homodimers; assay: Transient transfection CAT reporter assay, CRBPII-RARE; settings: CV-1 cells; retinoids 7 and 20 at 5×10^-7 M
Protocol: (§1) To carry out the analysis, four different reporter constructs were prepared carrying the aforementioned gene, followed by cotransfection with RARα, RARβ, or RXRα, or with RXRα and RARα together. […] CV- 1 cells or HEP G2 cells were grown in DME medium supplemented with 10% fetal calf serum. Cells were plated at 1.0×10^5 per well in a 24-well plate 16-24 hours before transfection. In general, 100 ng of reporter plasmid, 150 ng of β-galactosidase expression vector (pCH110, Pharmacia), and variable amounts of receptor expression vector were mixed with carrier DNA (pBluescript) to 1,000 ng of total DNA per well. […] The retinoids 7 and 20 were analyzed at a concentration of 5×10^-7 M.

[2] = system: CRBPI gene RARE, bound and activated by RAR/RXR heterodimers; assay: Transient transfection CAT reporter assay, CRBPI-RARE; settings: CV-1 cells; retinoids 7 and 20 at 5×10^-7 M
Protocol: as §1

[3] = system: RARβ2 gene promoter RARE (βRARE); assay: Transient transfection CAT reporter assay, βRARE; settings: CV-1 cells; 5×10^-7 M
Protocol: (§2) To carry out the analysis, four different reporter constructs were prepared carrying the aforementioned gene, followed by cotransfection with RARα, RARβ, or RXRα, or with RXRα and RARα together. […] CV- 1 cells or HEP G2 cells were grown in DME medium supplemented with 10% fetal calf serum. Cells were plated at 1.0×10^5 per well in a 24-well plate 16-24 hours before transfection. In general, 100 ng of reporter plasmid, 150 ng of β-galactosidase expression vector (pCH110, Pharmacia), and variable amounts of receptor expression vector were mixed with carrier DNA (pBluescript) to 1,000 ng of total DNA per well. Chloramphenicol acetyl transferase (CAT) activity was normalized for transfection efficiency by the corresponding β-galactosidase activity as described by M. Pfahl et al., /Methods in Enzymology 153:256 (1990).

RXR (RXRα) = biological target: T1, RXR (RXRα) (Homo sapiens, UniProt P19793); assay: TREpal-tk-reporter gene transient transfection assay with RXR expression vector; settings: for activity on TREpal-tk-reporter with RXR at 10^-7 M / activity on TREpal-tk-reporter with RXR at 10^-8 M / activity with RXR on TREpal-tk-reporter, preliminary evaluation: CV-1 cells; for activity with RXR on TREpal-tk-reporter, preliminary evaluation: RXR expression vector cotransfected; for activation of RXRα (overall conclusion): from TREpal and CRBPII reporter results
T1 construct: homodimer readout
T1 sequence (P19793 1-462): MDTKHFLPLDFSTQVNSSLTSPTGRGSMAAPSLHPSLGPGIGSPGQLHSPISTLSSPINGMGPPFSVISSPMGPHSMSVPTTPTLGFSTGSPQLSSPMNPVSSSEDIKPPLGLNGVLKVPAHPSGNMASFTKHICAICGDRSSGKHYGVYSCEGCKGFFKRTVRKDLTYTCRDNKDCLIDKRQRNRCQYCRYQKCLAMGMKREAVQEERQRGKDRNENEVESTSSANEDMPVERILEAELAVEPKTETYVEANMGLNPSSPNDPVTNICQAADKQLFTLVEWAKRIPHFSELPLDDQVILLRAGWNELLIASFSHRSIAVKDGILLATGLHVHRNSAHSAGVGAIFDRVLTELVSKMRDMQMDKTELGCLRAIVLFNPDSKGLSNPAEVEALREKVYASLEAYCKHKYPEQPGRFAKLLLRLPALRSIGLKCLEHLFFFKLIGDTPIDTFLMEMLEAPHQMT
Text: The TREpal-tk-reporter gene was use in the transient transfection assay of the preceding example to evaluate compounds 7 and 20 for induction of RXR activity specifically. The TREpal represents a response element that is activated by both RAR/RXR heterodimers and RXR homodimers (X-K. Zhang et al., Nature 358:587 (1992)).

RXR = assay: Transient transfection reporter assay in other cell lines incl. Hep G2; settings: various other cell lines, including Hep G2 cells (particular high response)
Protocol: as §2

SMILES	activation of CRBPII-RARE reporter (CAT activity) [1]	activation of CRBPI-RARE reporter (CAT activity) [2]	activation of βRARE reporter (CAT activity) [3]	activity on TREpal-tk-reporter with RXR at 10^-7 M (RXR (RXRα))	activity on TREpal-tk-reporter with RXR at 10^-8 M (RXR (RXRα))	activity with RXR on TREpal-tk-reporter, preliminary evaluation (RXR (RXRα))	activation of RXRα (overall conclusion) (RXR (RXRα))	RXR-specific activation in other cell lines (RXR)
CC1(C)CCC(C)(C)c2cc(C3(c4ccc(C(=O)O)cc4)SCCS3)ccc21 [Compound 7, [2-(5,6,7,8-Tetrahydro-5,5,8,8-tetramethyl-2-naphthalenyl)-2-(4-carboxyphenyl)]-1,3-dithiolane]	strong activators	no response	slightly activated	activities similar to 9-cis-retinoic acid	neither of the active compounds revealed activity	indicated activity with RXR	effective activators	
CC(C)=C(c1ccc(C(=O)O)cc1)c1ccc2c(c1)C(C)(C)CCC2(C)C [Compound 20, 4-[1-(5,6,7,8-Tetrahydro-5,5,8,8-tetramethyl-2-naphthalenyl)-2-methyl-1-propenyl]benzoic acid]	strong activators	no response	slightly activated	activities similar to 9-cis-retinoic acid	neither of the active compounds revealed activity	indicated activity with RXR	effective activators	significant and RXR-specific activation
